Where two headings read alike, the source gives them in different places.
Experiments:
[1] = Metabolic stability in liver microsomes; type: in vitro ADME; settings: read-out: in vitro microsomal CLint
Experimental: Samples were collected over the incubation period, quenched by the addition of an equal volume of acetonitrile, and analyzed using a Waters Acquity UPLC and Xevo G2 QTOF mass spectrometer with positive electrospray ionization under the MS^E mode. The natural log of the substrate concentration was plotted against the incubation time to determine the first-order degradation rate constant which was normalized to the microsomal protein concentration to give the in vitro intrinsic clearance (in vitro CLint, µL/min/mg microsomal protein). […] Cell viability was determined by Trypan Blue exclusion. At various times over the incubation period, samples were quenched with the addition of an equal volume of acetonitrile and analyzed as described above. Metabolite identification was conducted by accurate mass and tandem mass spectrometry (MS/MS) analysis.

Pf3D7 = assay: Parasite reduction ratio assay; type: cell-based, P. falciparum
Experimental: Assays were performed as described previously with some alterations ([37]). […] Specifically, media containing compound was placed in wells every 24 h for up 120 h. […] Parasite growth was measured at day 21 using SYBR green I as described above. Fluorescence was used to determine at what treatment day wells became positive for growth when compared with the well before it; greater than double the fluorescence was determined to be a positive well. […] Experiments were performed in two or three biological replicates in quadruplicate.

[2] = test system: human M1 aminopeptidase insulin-regulated aminopeptidase (IRAP); parameters: method as in PMID 30537832; settings: tested up to 200 µM; cited from earlier work
[3] = Binding to Albumax medium by ultracentrifugation; type: in vitro ADME
Experimental: Human plasma was obtained from the Volunteer Blood Donor Registry (Walter & Eliza Hall Institute, Melbourne, Australia), rat plasma was from male Sprague-Dawley rats (Animal Resource Centre, Perth, Western Australia) and mouse plasma was procured as described above. RPMI-1640 media supplemented with 25 mM HEPES, 2 g/L sodium bicarbonate, and 100 mg/L neomycin were additionally supplemented with 5 […] on the day prior to binding assessment. […] Additional aliquots of spiked matrix were maintained at 37°C for 4.2 h but not centrifuged to serve as controls for stability assessment and to obtain a measure of the total concentration in each matrix. Following centrifugation, aliquots of the protein-free supernatant and the non-centrifuged matrix controls were “matrix matched” by addition of an equal volume of the opposite medium (i.e., either blank buffer or blank matrix) and assayed as described above with comparison to calibration standards prepared in 50% matrix/50% PBS.

HDAC7 = target: T1, HDAC7 (Homo sapiens, UniProt Q8WUI4); assay: Eurofins Cerep safety pharmacology screening; type: biochemical; settings: read-out: Mean % inhibition (n=2); HDAC7, 10 µM
T1 construct: Eurofins Cerep (contract screen)
T1 sequence (Q8WUI4 whole entry): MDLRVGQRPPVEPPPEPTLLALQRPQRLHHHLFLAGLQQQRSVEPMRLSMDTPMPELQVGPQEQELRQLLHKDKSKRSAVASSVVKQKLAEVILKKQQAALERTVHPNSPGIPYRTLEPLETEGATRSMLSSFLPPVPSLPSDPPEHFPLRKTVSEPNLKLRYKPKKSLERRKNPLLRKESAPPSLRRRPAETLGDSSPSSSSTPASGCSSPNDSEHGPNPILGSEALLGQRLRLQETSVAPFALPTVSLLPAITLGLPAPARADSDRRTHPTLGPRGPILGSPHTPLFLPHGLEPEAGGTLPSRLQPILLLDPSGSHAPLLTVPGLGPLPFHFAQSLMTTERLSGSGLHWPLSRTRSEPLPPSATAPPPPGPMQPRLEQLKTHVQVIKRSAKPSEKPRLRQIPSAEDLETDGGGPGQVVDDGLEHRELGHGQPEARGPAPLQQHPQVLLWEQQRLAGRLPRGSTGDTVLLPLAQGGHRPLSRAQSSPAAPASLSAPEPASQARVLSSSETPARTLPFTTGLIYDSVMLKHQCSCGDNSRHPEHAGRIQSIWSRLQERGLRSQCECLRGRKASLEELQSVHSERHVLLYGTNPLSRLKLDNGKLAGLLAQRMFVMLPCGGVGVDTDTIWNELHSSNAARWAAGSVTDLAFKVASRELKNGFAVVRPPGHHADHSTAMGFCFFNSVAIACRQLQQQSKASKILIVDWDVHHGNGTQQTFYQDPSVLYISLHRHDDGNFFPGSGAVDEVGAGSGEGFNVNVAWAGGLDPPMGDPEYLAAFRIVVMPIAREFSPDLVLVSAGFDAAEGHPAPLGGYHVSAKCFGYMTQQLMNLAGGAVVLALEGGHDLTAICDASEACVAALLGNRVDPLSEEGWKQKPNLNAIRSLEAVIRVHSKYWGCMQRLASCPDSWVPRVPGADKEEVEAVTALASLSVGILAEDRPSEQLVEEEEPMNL
Text: (§1) Results showing any inhibition or stimulation higher than 50% are considered to represent significant effects of the test compounds.

HDAC2 = target: T2, HDAC2 (Homo sapiens, UniProt Q92769); assay: Eurofins Cerep safety pharmacology screening; type: biochemical; settings: read-out: Mean % inhibition (n=2); HDAC2, 10 µM
T2 construct: Eurofins Cerep (contract screen)
T2 sequence (Q92769 whole entry): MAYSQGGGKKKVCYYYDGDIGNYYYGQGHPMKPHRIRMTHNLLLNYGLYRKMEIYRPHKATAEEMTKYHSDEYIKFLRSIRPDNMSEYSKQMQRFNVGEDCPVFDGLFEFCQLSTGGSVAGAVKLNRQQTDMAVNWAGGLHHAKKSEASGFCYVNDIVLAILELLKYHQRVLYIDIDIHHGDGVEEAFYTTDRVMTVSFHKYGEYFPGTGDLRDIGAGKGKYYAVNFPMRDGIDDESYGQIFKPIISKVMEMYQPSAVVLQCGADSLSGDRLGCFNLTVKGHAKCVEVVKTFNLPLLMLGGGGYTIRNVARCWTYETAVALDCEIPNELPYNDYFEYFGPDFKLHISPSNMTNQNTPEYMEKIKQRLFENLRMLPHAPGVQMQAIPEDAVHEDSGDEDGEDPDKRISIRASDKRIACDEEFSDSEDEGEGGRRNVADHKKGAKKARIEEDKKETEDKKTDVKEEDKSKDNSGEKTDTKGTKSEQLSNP
Text: as §1

## CC(C)(C)CC(=O)NC(C(=O)NO)c1ccc(-c2cc(F)c(F)c(F)c2)cc1 (centres unmarked) [MMV1557817, N-(2-(hydroxyamino)−2-oxo-1-(3′,4′,5′-trifluoro-[1,1′-biphenyl]-4-yl)ethyl)-3,3-dimethylbutanamide]
[1]; human liver microsomes
  microsomal CLint at 1 µM: 11 µL/min/mg
[1]; mouse liver microsomes
  microsomal CLint at 1 µM: 23 µL/min/mg
[1]; rat liver microsomes
  microsomal CLint at 1 µM: 29 µL/min/mg
Pf3D7; Pf3D7, 10× EC50
  99.9% PCT: 86 h
  Lag phase: 72 h
Pf3D7; Pf3D7, 10× EC50, over one cycle
  Log (PRR): 2.2 ± 0.2
[2]
  off-target inhibition: limited off-target inhibitory affects
[3]; Albumax medium
  unbound in Albumax medium: 15.5%
[3]; Albumax medium used for in vitro activity assessment
  Albumax media binding: 84.5%
HDAC7
  inhibition at 10 µM: 7.7%
HDAC2
  inhibition at 10 µM: 3%

From paper PMC11237774, “On-target, dual aminopeptidase inhibition provides cross-species antimalarial activity” (mBio, 2024)
